According to the supplement of paper PMC11061612:

Experiments:
Test in all cases: combination Emax (second highest fraction inhibited in the dose matrix, 72 h); higher = more inhibition; extreme values may be limits of the assay
[1] = system: SW756 (Cervical Carcinoma)
In short: (§1)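 Cell lines grown in DMEM/F12 or RPMI with 10% FBS were plated in 1536-well plates and held 24 hours at 37°C, 5% CO2 before 72 hours of exposure to two-drug dose matrices, with DMSO typically at 0.2%. CellTiter-Glo 2.0 luminescence gave viability, which was converted to inhibition. Vehicle wells were set to 0 and blank wells to 1. Combination Emax is the second-highest inhibition in the matrix, and Bliss excess is the observed combination effect minus the expected EA + EB − EA·EB, where EA and EB are the single-agent effects.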

[2] = system: SUIT-2 (Pancreatic Carcinoma)
In short: as §1

[3] = system: SW780 (Bladder Carcinoma)
In short: as §1

[4] = system: KM-H2 (Hodgkin's Lymphoma)
In short: as §1

[5] = system: TGBC24TKB (Biliary Tract Carcinoma)
In short: as §1

[6] = system: RH-1 (Ewing's Sarcoma)
In short: as §1

## CS(=O)(=O)CCNCc1ccc(-c2ccc3ncnc(Nc4ccc(OCc5cccc(F)c5)c(Cl)c4)c3c2)o1 [Lapatinib] + NC1(c2ccc(-c3nc4ccn5c(=O)[nH]nc5c4cc3-c3ccccc3)cc2)CCC1 [MK-2206] (first compound max 10 µM, 7x7, partner max 10 µM)
[1]
  combination Emax: 0.175
[2]
  combination Emax: 0.361
[3]
  combination Emax: 0.737
[4]
  combination Emax: 0.939
[5]
  combination Emax: 0.957
[6]
  combination Emax: 0.936
